Source: PubChem BioAssay AID248 (DTP/NCI, 2004)
Toxic doses and inconclusive results are not listed. No stated cut-off is given here; in the data, active means T/C of 150% or more; inactive means T/C below 125%.

Test system: L1210 leukemia ip in BDF1 mice, survival T/C
Test: NCI In Vivo Anticancer Drug Screen. Data for tumor model L1210 Leukemia (intraperitoneal) in B6D2F1 (BDF1) mice
Conditions: endpoint: mean survival time, higher = longer survival
Outline: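 Tumor cells were implanted, animals were treated, and survival was followed. The result divides the treated measurement by the vehicle-control measurement.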

[1] = dose: 100.0 mg/kg/injection, schedule: Q01DX009 (ip), vehicle: saline with Tween-80
[2] = dose: 200.0 mg/kg/injection, schedule: Q01DX009 (ip), vehicle: saline with Tween-80
[3] = dose: 100.0 mg/kg/injection, schedule: Q04DX003 (ip), vehicle: saline
[4] = dose: 200.0 mg/kg/injection, schedule: Q04DX003 (ip), vehicle: saline
[5] = dose: 400.0 mg/kg/injection, schedule: Q04DX003 (ip), vehicle: saline
[6] = dose: 100.0 mg/kg/injection, schedule: Q01DX001 (ip), vehicle: saline
[7] = dose: 200.0 mg/kg/injection, schedule: Q01DX001 (ip), vehicle: saline
[8] = dose: 400.0 mg/kg/injection, schedule: Q01DX001 (ip), vehicle: saline
[9] = dose: 100.0 mg/kg/injection, schedule: Q04DX002 (ip), vehicle: Klucel (hydroxypropylcellulose) (HPC)
[10] = dose: 200.0 mg/kg/injection, schedule: Q04DX002 (ip), vehicle: Klucel (hydroxypropylcellulose) (HPC)
[11] = dose: 400.0 mg/kg/injection, schedule: Q04DX002 (ip), vehicle: Klucel (hydroxypropylcellulose) (HPC)
[12] = dose: 100.0 mg/kg/injection, schedule: Q04DX003 (ip), vehicle: Klucel (hydroxypropylcellulose) (HPC)
[13] = dose: 200.0 mg/kg/injection, schedule: Q04DX003 (ip), vehicle: Klucel (hydroxypropylcellulose) (HPC)
[14] = dose: 100.0 mg/kg/injection, schedule: Q01DX009 (ip), vehicle: Klucel (hydroxypropylcellulose) (HPC)
[15] = dose: 200.0 mg/kg/injection, schedule: Q01DX009 (ip), vehicle: Klucel (hydroxypropylcellulose) (HPC)
[16] = dose: 400.0 mg/kg/injection, schedule: Q01DX009 (ip), vehicle: Klucel (hydroxypropylcellulose) (HPC)

Measured: T/C

Cc1cccc(S(=O)(=O)F)c1
inactive: dose: 50.0 mg/kg/injection, schedule: Q01DX009 (ip), vehicle: saline with Tween-80 91 % of control | [1] 100 % of control | dose: 100.0 mg/kg/injection, schedule: Q04DX003 (ip), vehicle: acetone 101 % of control | [2] 88 % of control | dose: 200.0 mg/kg/injection, schedule: Q04DX003 (ip), vehicle: acetone 97 % of control

Cc1ccc(NCc2cccc3ccccc23)c(C)c1
inactive: dose: 100.0 mg/kg/injection, schedule: Q01DX009 (ip), vehicle: saline 96 % of control | [3] 104 % of control | dose: 200.0 mg/kg/injection, schedule: Q01DX009 (ip), vehicle: saline 97 % of control | [4] 102 % of control | dose: 400.0 mg/kg/injection, schedule: Q01DX009 (ip), vehicle: saline 94 % of control | [5] 96 % of control

O=C(Nc1ccccc1)c1ccc2c(c1)C(=O)OC2=O
inactive: [1] 102 % of control | [2] 94 % of control | dose: 400.0 mg/kg/injection, schedule: Q01DX009 (ip), vehicle: saline with Tween-80 89 % of control

O=[N+]([O-])c1ccc2c(c1)CCCC2
inactive: dose: 100.0 mg/kg/injection, schedule: Q01DX009 (ip), vehicle: other 98 % of control | dose: 100.0 mg/kg/injection, schedule: Q04DX003 (ip), vehicle: other 105 % of control | dose: 200.0 mg/kg/injection, schedule: Q01DX009 (ip), vehicle: other 104 % of control | dose: 200.0 mg/kg/injection, schedule: Q04DX003 (ip), vehicle: other 96 % of control | dose: 400.0 mg/kg/injection, schedule: Q01DX009 (ip), vehicle: other 116 % of control | dose: 400.0 mg/kg/injection, schedule: Q04DX003 (ip), vehicle: other 92 % of control

CN(N=O)C(=O)NCC1OC(n2cnc3c(N)ncnc32)C(O)C1O (centres undefined)
inactive: dose: 9.0 mg/kg/injection, schedule: Q01DX001 (ip), vehicle: saline with Tween-80 95 % of control | dose: 13.0 mg/kg/injection, schedule: Q01DX001 (ip), vehicle: saline with Tween-80 98 % of control | dose: 26.0 mg/kg/injection, schedule: Q01DX001 (ip), vehicle: saline with Tween-80 96 % of control | dose: 40.0 mg/kg/injection, schedule: Q01DX001 (ip), vehicle: saline with Tween-80 96 % of control | dose: 60.0 mg/kg/injection, schedule: Q01DX001 (ip), vehicle: saline with Tween-80 98 % of control | dose: 90.0 mg/kg/injection, schedule: Q01DX001 (ip), vehicle: saline with Tween-80 103 % of control | dose: 133.0 mg/kg/injection, schedule: Q01DX001 (ip), vehicle: saline with Tween-80 101 % of control | dose: 200.0 mg/kg/injection, schedule: Q01DX001 (ip), vehicle: saline with Tween-80 106 % of control

Cc1cccc(N2CCN(CC(O)COc3cccc4ccccc34)CC2)c1 (centres undefined)
inactive: [6] 95 % of control | [7] 98 % of control | [8] 95 % of control

O=C1OC(c2ccc([N+](=O)[O-])cc2)=N/C1=C\c1ccc(Cl)c(Cl)c1
inactive: [9] 108 % of control | [10] 97 % of control | [11] 101 % of control

Cc1ccc(NC(=O)CI)cc1
inactive: dose: 50.0 mg/kg/injection, schedule: Q04DX002 (ip), vehicle: other 100 % of control

COc1ccc(N=Nc2sc(N)nc2-c2ccc(Cl)cc2)cc1
inactive: dose: 12.5 mg/kg/injection, schedule: Q01DX001 (ip), vehicle: saline with Tween-80 93 % of control | dose: 25.0 mg/kg/injection, schedule: Q01DX001 (ip), vehicle: saline with Tween-80 90 % of control | dose: 50.0 mg/kg/injection, schedule: Q01DX001 (ip), vehicle: saline with Tween-80 101 % of control

O=[N+]([O-])c1ccc(/C=C/c2ncc[nH]2)o1
inactive: [12] 92 % of control | [13] 92 % of control

C=CCOC(=O)C1CC(C(=O)OCC=C)C(C(=O)OCC=C)C1C(=O)OCC=C (centres undefined)
inactive: [14] 100 % of control | [12] 91 % of control | [15] 92 % of control | [13] 100 % of control | [16] 92 % of control | dose: 400.0 mg/kg/injection, schedule: Q04DX003 (ip), vehicle: Klucel (hydroxypropylcellulose) (HPC) 96 % of control

NS(N)(=O)=O
inactive: dose: 50.0 mg/kg/injection, schedule: Q01DX001 (ip), vehicle: carboxymethylcellulose (CMC) 88 % of control | dose: 100.0 mg/kg/injection, schedule: Q01DX001 (ip), vehicle: carboxymethylcellulose (CMC) 95 % of control | dose: 200.0 mg/kg/injection, schedule: Q01DX001 (ip), vehicle: carboxymethylcellulose (CMC) 98 % of control | dose: 400.0 mg/kg/injection, schedule: Q01DX001 (ip), vehicle: carboxymethylcellulose (CMC) 98 % of control

CCN(CC)c1ccc(N=C2C=C(C(=O)Nc3cccc(Cl)c3)C(=O)c3ccccc32)c(C)c1
inactive: dose: 100.0 mg/kg/injection, schedule: Q01DX001 (ip), vehicle: other 92 % of control | dose: 200.0 mg/kg/injection, schedule: Q01DX001 (ip), vehicle: other 92 % of control | dose: 400.0 mg/kg/injection, schedule: Q01DX001 (ip), vehicle: other 96 % of control

Cc1ccccc1CCC(=O)OCC(=O)c1ccc(-c2ccccc2)cc1
inactive: [6] 96 % of control | [7] 88 % of control | [8] 92 % of control

O=C(O)COc1ccccc1C(=O)O
inactive: dose: 5.0 mg/kg/injection, schedule: Q01DX001 (ip), vehicle: saline 100 % of control | dose: 10.0 mg/kg/injection, schedule: Q01DX001 (ip), vehicle: saline 100 % of control | dose: 20.0 mg/kg/injection, schedule: Q01DX001 (ip), vehicle: saline 96 % of control | dose: 20.0 mg/kg/injection, schedule: Q04DX002 (ip), vehicle: Klucel (hydroxypropylcellulose) (HPC) 88 % of control | dose: 40.0 mg/kg/injection, schedule: Q01DX001 (ip), vehicle: saline 96 % of control | dose: 40.0 mg/kg/injection, schedule: Q04DX002 (ip), vehicle: Klucel (hydroxypropylcellulose) (HPC) 98 % of control | dose: 80.0 mg/kg/injection, schedule: Q04DX002 (ip), vehicle: Klucel (hydroxypropylcellulose) (HPC) 100 % of control | [14] 89 % of control | [9] 95 % of control | [15] 86 % of control | [10] 98 % of control | [16] 89 % of control | [11] 103 % of control

CCC1CC[N-]CC1.CCC1CC[N-]CC1.[Cl][Pt+2]([Cl])([Cl])[Cl]
inactive: dose: 6.25 mg/kg/injection, schedule: Q01DX009 (ip), vehicle: saline 103 % of control | dose: 12.5 mg/kg/injection, schedule: Q01DX009 (ip), vehicle: saline 110 % of control | dose: 12.5 mg/kg/injection, schedule: Q04DX003 (ip), vehicle: saline 97 % of control | dose: 25.0 mg/kg/injection, schedule: Q01DX009 (ip), vehicle: saline 86 % of control | dose: 25.0 mg/kg/injection, schedule: Q04DX003 (ip), vehicle: saline 95 % of control | dose: 50.0 mg/kg/injection, schedule: Q04DX003 (ip), vehicle: saline 104 % of control

c1ccc([B-](c2ccccc2)(c2ccccc2)[C+]2CCCCC2)cc1 (tested in a mixture with another compound)
inactive: [6] 105 % of control | [7] 108 % of control | [8] 108 % of control

Cn1nc(N)c2ncc(-c3ccccc3)nc21
inactive: [14] 92 % of control | [3] 103 % of control | [15] 95 % of control | [4] 107 % of control | [16] 98 % of control | [5] 98 % of control

CCN(C(C)=O)c1ccc(S(=O)(=O)Cl)cc1
inactive: dose: 100.0 mg/kg/injection, schedule: Q04DX003 (ip), vehicle: saline with Tween-80 97 % of control | dose: 200.0 mg/kg/injection, schedule: Q04DX003 (ip), vehicle: saline with Tween-80 88 % of control

CCOc1ccc(-n2cnc3ccccc3c2=O)cc1CN(CCCl)CCCl
inactive: dose: 100.0 mg/kg/injection, schedule: Q01DX001 (ip), vehicle: Klucel (hydroxypropylcellulose) (HPC) 100 % of control | dose: 200.0 mg/kg/injection, schedule: Q01DX001 (ip), vehicle: Klucel (hydroxypropylcellulose) (HPC) 102 % of control | dose: 400.0 mg/kg/injection, schedule: Q01DX001 (ip), vehicle: Klucel (hydroxypropylcellulose) (HPC) 100 % of control
